Results taken from ChEMBL document CHEMBL1136523, “A novel estrogen receptor ligand template” (Bioorg Med Chem Lett, 2003).

How the values were obtained:
Estrogen receptor [1] = target: T1, Estrogen receptor (Homo sapiens, UniProt P03372); test: In vitro binding affinity for estrogen receptor alpha
T1 sequence (P03372 whole entry): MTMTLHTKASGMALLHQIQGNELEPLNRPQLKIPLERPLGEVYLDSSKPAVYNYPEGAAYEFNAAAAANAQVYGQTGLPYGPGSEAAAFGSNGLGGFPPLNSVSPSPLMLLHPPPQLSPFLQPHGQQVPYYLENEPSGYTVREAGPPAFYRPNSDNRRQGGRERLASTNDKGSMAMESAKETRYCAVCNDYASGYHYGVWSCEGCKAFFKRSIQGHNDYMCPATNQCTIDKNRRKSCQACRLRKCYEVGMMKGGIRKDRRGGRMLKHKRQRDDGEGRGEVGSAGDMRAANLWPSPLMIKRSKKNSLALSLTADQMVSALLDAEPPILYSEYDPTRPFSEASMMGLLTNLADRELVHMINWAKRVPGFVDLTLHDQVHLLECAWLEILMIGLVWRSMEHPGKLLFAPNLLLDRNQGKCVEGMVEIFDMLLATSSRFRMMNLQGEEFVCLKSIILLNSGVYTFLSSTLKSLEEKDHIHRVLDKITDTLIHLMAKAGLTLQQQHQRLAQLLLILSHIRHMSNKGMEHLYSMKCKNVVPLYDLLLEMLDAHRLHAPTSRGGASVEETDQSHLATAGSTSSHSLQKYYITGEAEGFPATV

Estrogen receptor [2] = target: Estrogen receptor (Homo sapiens, UniProt Q92731+P03372); test: Percent agonistic activity for estrogen-induced pS2 expression in MCF-7 cells; type: functional, cell-based; settings: mcf7
Estrogen receptor beta = Estrogen receptor beta (Homo sapiens, UniProt Q92731)
Chain of Estrogen receptor beta (Q92731 whole entry): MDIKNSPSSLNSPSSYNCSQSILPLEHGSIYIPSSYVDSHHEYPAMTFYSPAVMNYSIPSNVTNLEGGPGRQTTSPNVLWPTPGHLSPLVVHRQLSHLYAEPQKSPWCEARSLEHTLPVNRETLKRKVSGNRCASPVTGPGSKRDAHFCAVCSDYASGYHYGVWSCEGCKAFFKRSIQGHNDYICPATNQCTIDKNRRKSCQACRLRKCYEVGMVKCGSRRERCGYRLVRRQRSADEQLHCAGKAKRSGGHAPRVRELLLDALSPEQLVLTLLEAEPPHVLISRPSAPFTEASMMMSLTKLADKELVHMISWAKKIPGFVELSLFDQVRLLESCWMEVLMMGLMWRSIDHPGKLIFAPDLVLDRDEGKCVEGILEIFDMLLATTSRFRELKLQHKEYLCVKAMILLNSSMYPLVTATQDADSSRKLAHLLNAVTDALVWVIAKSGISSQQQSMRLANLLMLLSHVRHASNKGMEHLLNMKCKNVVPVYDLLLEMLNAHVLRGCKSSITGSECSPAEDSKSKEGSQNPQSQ
Description: In vitro binding affinity for estrogen receptor beta

OC[C@@]12CC=C[C@@H](C1)[C@H](c1ccc(O)cc1)CC2
IC50 (Estrogen receptor [1]): 0.55 µM | EC50 (Estrogen receptor [2]): < 0.01 µM | IC50 (Estrogen receptor beta): 0.075 µM
